Measurements taken from article PMC11755785 (Langmuir, 2025).
Like-named read-outs stand apart in the source and are kept apart here.

Experiments:
[1] = design: method as in PMID 34606770; details: Chart 1; cited from earlier work
[2] = cited from earlier work
[3] = UVA1 (365 nm) photodegradation in isochoric acetonitrile/water solvent; type: physicochemical
Procedure: (§1) The samples were obtained after passage for appropriate periods and measured using an UV–vis spectrophotometer in the maximum range between 200 and 700 nm (arranged on demand) from long wavelengths toward short wavelengths to avoid unnecessary irradiation of the UV region. To obtain HPLC chromatograms, aliquots of the UV-irradiated solution were obtained by pipetting at 0, 1/5, 1/2, 1, 2, 3, 4, 24, 48, 72, 96, 120, 144, and 168 h for AVB and at 0, 1, 2, 3, and 18 h for CUR. To obtain those of OXB in the absence or presence of β-CD, the invariable samples were certified at 0 and 48 h. For the samples in acetonitrile aqueous solution or methanol aqueous solution at a ratio of 7:3, the time evolution of the UVA1 irradiated solution was examined under similar conditions.

[4] = Phase-solubility diagram with β-CD
Procedure: The solutions were mechanically shaken at 298 K in a thermostatic chamber, and the supernatant was sampled and filtered after passage for appropriate periods. The concentration of the drug in the supernatant was determined using HPLC.
The phase-solubility diagram consists of the equilibrium concentration of the guest drug as the ordinate and the total concentration of the host CD as the abscissa.[45] If a straight line and parabolic curve can be approximated on the phase-solubility diagram, then, the curves are classified as AL- and AP-types in the Higuchi and Connors catalogs, respectively.[45],[46]
Multiple regression analysis of the measured data set to the total concentration of the host ([CD]) and its squares ([CD]^2) using eq 3 can be used to obtain the stability constants for a combination of the equimolar complex K1:1 and double-host associating complex K1:2.[45],[46] [drawing 3] 3 This is the sum of the dissociated (free) and associated (complexed) drug concentrations. Although the Benesi–Hildebrand equation with the square of the host concentration has been used for parabolic correlations, its validity remains unclear.
This curve is classified as the AN-type on the Higuchi and Connors catalog.[45]−[48] The curve is described by eq 4′ according to the Langmuir adsorption isotherm model.[47]−[51] To process with the linear regression analysis of ordinate ([CD]/γ) referred to abscissa ([CD]), the Hanes–Woolf expression in eq 4′ may be used [drawing 4] 4 [drawing 5] 4′ where n indicates the asymptotic concentration of the drug associated with CD (saturation, maximal γ) and K is equivalent to the drug/CD complex stability constant. […] The stoichiometry of a complex of drugs with CD is difficult to determine; the prevailing opinion is that more than one guest molecule incorporates a host molecule and that hydration or ionization of the guest regulates the solubility of the complex.[46]
Szejtili[46] stated that, in rare cases, the ascending region at lower host concentrations is followed by a plateau region, similar to that of the AN-type saturation curve. Simultaneously, it terminates at any host concentration threshold. It is named the BS-type in the Higuchi and Connors catalog,[45]−[48] and for concentrations higher than the threshold, the guest concentration decreases along a hyperbola, probably according to the solubility product KSP.[49] To analyze this type of pattern, a hypothesis that is yet to be discussed is required.[52] […] At the threshold concentration of CD, the scale of the aggregated dispersoids transcends an upper limit, and the aggregation induces subsequent sedimentation.[52] Thus, the solubility product may be considered a property of poorly soluble aggregated dispersoids containing a tolerable amount of the drug and an excess amount of CD.

[5] = Flask-shaking 1-octanol/water partition, log D–pH profile fitted to Avdeef's diagram; type: physicochemical; details: modified Britton–Robinson buffers pH 5–11.5, 298 K
Procedure: The aqueous-phase solvents were prepared by mixing 25 mM KH2PO4 and 25 mM Na2HPO4 solutions in 25 mM Pi buffer. The pH was adjusted before fixing the prescribed concentrations of the acid components of the buffer. The JP1 and JP2 buffer solutions were 10 mM sodium citrate/HCl buffer (pH 1.2) and Pi buffer (pH 6.8), which were prepared in compliance with the description for solution media for the dissolution test in Japanese Pharmacopeia (JP)-implemented international harmonization. The modified Britton–Robinson universal pH buffer comprised 28.6 mM KH2PO4, 28.6 mM HBO2, and 28.6 mM NaCl, titrated with 1 M NaOH (here, modified means elimination of barbital to cancel its interaction with organic solutes). For the partition equilibrium examination, the aqueous saturated 1-octanol phase comprised 1-octanol, which was flooded with a modified Britton–Robinson buffer adjusted to the appropriate pH in advance.
The hydrophobic drug dissolved in the aqueous saturated 1-octanol phase was mixed with an isochoric solution of the modified Britton–Robinson buffer (pH 5–11.5), saturated with 1-octanol. Thereafter, the samples in the screw-capped vials were machine-shaken at 298 K in a thermostatic chamber for 60 min and subsequently kept stationary for 60 min; the procedure corresponds to the conventional “flask-shaking” method.[41]−[43] After settling, the pH in the aqueous phase was confirmed using pH indicator strips (MColoHast pH 0–6.0, MQuant pH 7.5–14, and MQuant pH 0–14, Merck, Germany) to be that of the adjusted pH value. Aliquots (10 μL) from the 1-octanol and the aqueous layers were injected into the HPLC instrument. The 1-octanol/water partition coefficients, log P (equivalent to log KOW), and acid dissociation constants, pKa, were optimized using curve fitting, approximated by eq 1 [drawing 1] 1 which is Avdeef’s diagram[44] derived from the Henderson–Hasselbalch expression for the equilibrium between the protonated and deprotonated species. The curve-fitting procedures used the solver module of Microsoft Excel 2016 with the implemented GRG nonlinear option. Approximate curves corresponding to these optimized parameters were drawn, and the pKa and log P values for AVB, OXB, and CUR were obtained.

[6] = Phase-solubility diagram with HP-β-CD; type: physicochemical; design: stability constant K1:2 with HP-β-CD: unit not given here
[7] = UVA1 (365 nm) photodegradation in aqueous buffer, UV–vis spectra / RP-HPLC; type: physicochemical; details: for UVA1 photodegradation (spectral change): 50 μM, aqueous; for disruption on exposure to UV light: 4 h
Procedure: as §1

[8] = Photostability under solar light, UV–vis spectra; type: physicochemical; details: solar light 4 h, 50 μM
Procedure: The photostability of the drug under solar light was evaluated using UV–vis spectral measurements. Sample solutions were exposed to solar light outdoors at a sunny location on a latitude of 35.92° N and a longitude of 139.91° E for 4 h, from 12:00 to 16:00, at an average temperature of 284.55 K.

[9] = cited from earlier work; remark: listed apart in the source
[10] = design: method as in Yan et al. 95; details: ref Yan et al. 95; cited from earlier work
[11] = cited from earlier work; remark: listed apart in the source
[12] = 25 mM Pi/NaOH buffer pH 6.8, 298 K, Figure 2, in M-1 (unit assumed)
[13] = 25 mM Pi/NaOH buffer pH 6.8, 298 K, Figure 2

CCOCCOC(=O)C=Cc1ccc(OC)cc1 [Cinoxate, cinoxate]
water solubility [1]: high water solubility

O=S(=O)(O)c1ccc2[nH]c(-c3ccccc3)nc2c1 [Ensulizole, ensulizole]
risk / toxicity property [1]: With photo-oxidizing properties

CC(O)COC[C@H]1O[C@@H]2O[C@H]3[C@H](O)[C@@H](O)[C@@H](O[C@H]4[C@H](O)[C@@H](O)[C@@H](O[C@H]5[C@H](O)[C@@H](O)[C@@H](O[C@H]6[C@H](O)[C@@H](O)[C@@H](O[C@H]7[C@H](O)[C@@H](O)[C@@H](O[C@H]8[C@H](O)[C@@H](O)[C@@H](O[C@H]1[C@H](O)[C@H]2O)O[C@@H]8COCC(C)O)O[C@@H]7COCC(C)O)O[C@@H]6COCC(C)O)O[C@@H]5COCC(C)O)O[C@@H]4COCC(C)O)O[C@@H]3COCC(C)O (stereo partly drawn) [HP-β-CD, hydroxypropyl-β-cyclodextrin]
aqueous solubility [2]: more than 400 mmol/L

CC1CC(OC(=O)c2ccccc2O)CC(C)(C)C1 (stereo not shown) [Homosalate, homosalate]
risk / toxicity property [1]: endocrine-disrupting

COc1ccc(C(=O)c2ccccc2)c(O)c1 [OXB]
log Kow ([2]; Chart 1): 3.79
reported pKa [2]: 7.6
concentration change under UVA1 irradiation (290 nm absorbance) ([3]; up to 50 h): marginally reduced
stability constant K1:1 with β-CD [4, 12]: 2019
pKa ([5]; from log D–pH curve fitting, read-out: acid dissociation constant, pKa): 7.97
logP ([5]; neutral form, curve fitting, read-out: 1-octanol/water partition coefficient, log P): 2.99
stability constant K1:1 with HP-β-CD [6, 12]: 366.8
phase-solubility diagram type (Higuchi and Connors) with HP-β-CD ([6]; pH 6.8): AL-type
UVA1 photodegradation (spectral change) ([7]; absence of β-CD): maintenance of the OXB spectrum for 2 days
UVA1 photodegradation (spectral change) ([7]; presence of β-CD): maintenance of the OXB spectrum for 2 days
stability under solar light compared to UVA1 irradiation ([8]; presence or absence of β-CD): more significant than that observed under UVA1 irradiation

CCCCC(CC)COC(=O)C=Cc1ccc(OC)cc1 (stereo not shown) [Octinoxate (OCX), octinoxate]
risk / toxicity property [1]: toxic risks for the marine ecosystem

CCCCC(CC)COC(=O)C(C#N)=C(c1ccccc1)c1ccccc1 (stereo not shown) [Octocrylene (OCR), octocrylene]
biodegradability [1]: poorly biodegradable

CCCCC(CC)COC(=O)c1ccc(N(C)C)cc1 (stereo not shown) [Padimate-O, padimate O]
risk / toxicity property [1]: insignificant risks

curcumin
log P [2]: 3.2
updated pKa (first value) [2]: 7.56
updated pKa (second value) [2]: 8.72
updated pKa (third value) [2]: 10.17
pKa (keto-enol) ([2]; first of three pKa values): 7.8
pKa (first phenolic OH) ([2]; second of three pKa values): 8.5
pKa (second phenolic OH) ([2]; third of three pKa values): 9.0
effect of equimolar and 4 mM β-CD on photodegradation velocity / first-order rate ([3]; UVA1 365 nm, 25 μM): decreased
stability constant K1:1 with HP-β-CD ([9]; ref Celebioglu and Uyar 84): 3073 M^–1
stability constant K1:1 with HP-β-CD ([9]; ref Li et al. 85): 2941 M^–1
degradation under 425 nm light compared to 620 nm light [10]: 1.7 times faster
stability constant K1:2 with β-CD [4, 13]: 74.41
stability constant K1:1 with β-CD [4, 12]: 771.7
phase-solubility diagram type (Higuchi and Connors) with β-CD ([4]; pH 6.8): AP-type
stability constant K1:1 with β-CD ([4]; pH 6.8): 771.7 M^–1
acid dissociation constant, pKa ([5]; from log D–pH curve fitting): 8.81
1-octanol/water partition coefficient, log P ([5]; neutral form, curve fitting): 2.65
CUR saturation concentration in reported AN-type diagram [11]: ≤ 0.00012 mM
stability constant K1:1 with β-CD ([11]; ref Chen et al. 83): 198 M^–1
stability constant K1:1 with β-CD ([11]; ref Mashaqbef et al. 81): 487.3 M^–1
CUR solubility in reported phase-solubility diagram ([11]; speculated by the authors from the report): ≤ 16 µM
stability constant K1:2 with HP-β-CD [6, 13]: 2.302
stability constant K1:1 with HP-β-CD [6, 12]: 6619
phase-solubility diagram type (Higuchi and Connors) with HP-β-CD ([6]; pH 6.8): AP-type
stability constant K1:1 with HP-β-CD ([6]; pH 6.8): 6619 M^–1
disruption on exposure to UV light ([7]; solution containing β-CD): 31.90%
disruption on exposure to UV light ([7]; solution without β-CD): 40.95%
change in absorption peaks under solar light ([8]; presence of β-CD): significant changes in absorption peaks
